From patent US12552771B2, “Carboxylic acid containing azetidinyl compounds for the treatment of neurodegenerative diseases” (Celgene Corporation, priority 2021, dated 2026)
pEC50: −log10 of the molar value. Structures can show the parent of a compound that is named as a salt.

Molecular target: T1, S1P5 receptors (Homo sapiens, UniProt Q9H228)
T1 construct: expressed in transfected cells; host or cells: CHO cells (membranes)
Test: [35S]-GTPγS binding assay with CHO-S1P5 receptor membranes
Assay type: biochemical
Conditions: membranes of CHO cells expressing recombinant S1P5 receptors; measure of S1P5 agonism
Protocol: CHO cells expressing recombinant S1P5 receptors were cultured in 500 cm^2 culture trays and, once confluent, rinsed and detached with cell-lifting buffer (10 mM HEPES, 154 mM NaCl, 6.85 mM EDTA, pH 7.4). Cells were then pelleted by centrifugation, resuspended, and homogenized in membrane preparation buffer (10 mM HEPES and 10 mM EDTA, pH 7.4) using a Polytron PT 1200E homogenizer (Kinematica, Luzern, Switzerland). Cellular proteins were pelleted by centrifugation at 48,000×g at 4° C. for 30 minutes. The resulting supernatant was discarded, and the pellet was re-suspended again in membrane preparation buffer, homogenized for a second time, and then centrifuged again as described above. The final cellular protein pellet was suspended in ice cold resuspension buffer (10 mM HEPES and 0.1 mM EDTA, pH 7.4), divided into aliquots, and stored at −80° C. until use.
Functional binding assays for [^35]-GTPγS were performed in 96-well non-binding surface plates with a final volume of 200 μL. The test compounds were serially diluted in DMSO and added to assay plates using a Tecan D300E digital printer with a total volume of […]. The control sphingosine-1-phosphate (SiP) was prepared separately by preparing a 400 μM stock solution from a 100 nmol pellet of SiP in 10 mM Na2CO3 with 2% […]. The serial dilution of SiP was done using complete assay buffer (20 mM HEPES, 10 mM MgCl2, 100 mM NaCl, 1 mM EDTA, 0.1% fatty acid free bovine serum albumin (BSA), and 30 μg/mL saponin, pH 7.4) and transferred to wells already containing 0.4 μL DMSO. All the wells were then loaded to a total volume of 40 μL of complete assay buffer, except the non-specific binding (NSB) wells. For NSB wells, 40 μL/well of 50 μM GTPγS (Sigma Aldrich, cat #G8634, St. Louis, MO) was added to wells containing 0.4 μL of DMSO. The assay was started by the addition of 120 μL/well of CHO-S1P receptor membrane solution containing 40 μg/mL of membrane protein, 16.67 μM guanosine diphosphate (GDP; Sigma Aldrich, cat #G7127, St. Louis, MO), and 2.5 mg/mL of WGA PVT SPA beads in complete buffer. Assay plates were then sealed and incubated at room temperature with gentle agitation for 30 minutes. Next, 40 μL/well of 1 nM of [^35]-GTPγS (PerkinElmer, cat #NEG030X250UC, Waltham, MA) in basic assay buffer (20 mM HEPES, 10 mM MgCl2, 100 mM NaCl, and 1 mM EDTA, pH7.4) was added to the assay plates to yield a final concentration of 200 pM and the plates were further incubated for 40 minutes at room temperature with gentle agitation. The assay was terminated by centrifugation of the plates at 1000 rpm for 3 minutes using an Eppendorf 5810R centrifuge (Eppendorf, Hamburg, Germany) and G protein bound radioactivity was quantitated using a MicroBeta2 microplate scintillation counter (PerkinElmer, Waltham, MA). As G protein bound radioactivity directly correlates to receptor activation and coupling to the G protein, this assay is a measure of S1P5 agonism.

T1 sequence (Q9H228 whole entry): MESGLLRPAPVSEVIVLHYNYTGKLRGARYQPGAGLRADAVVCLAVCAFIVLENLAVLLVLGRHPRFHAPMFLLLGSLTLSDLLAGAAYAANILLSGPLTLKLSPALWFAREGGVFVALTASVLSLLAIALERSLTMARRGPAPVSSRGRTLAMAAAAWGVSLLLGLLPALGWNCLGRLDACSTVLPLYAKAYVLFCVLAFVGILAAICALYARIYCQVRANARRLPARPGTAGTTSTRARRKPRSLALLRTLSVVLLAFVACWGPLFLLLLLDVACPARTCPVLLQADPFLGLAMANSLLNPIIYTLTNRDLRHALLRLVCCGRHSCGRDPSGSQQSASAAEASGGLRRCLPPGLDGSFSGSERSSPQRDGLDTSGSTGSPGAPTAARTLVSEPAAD

| pEC50 | Compound |
| --- | --- |
| 7.00 to 8.00 | O=C(O)C1CCN(C2CCc3cc(C4CN(c5c(F)cccc5F)C4)ccc32)CC1 (single isomer, unassigned) [Compound 2a, 1-(5-(1-(2,6-difluorophenyl)azetidin-3-yl)-2,3-dihydro-1H-inden-1-yl)-piperidine-4-carboxylic acid] |
| ≥ 8.00 | Cc1cc(CN2CCC(C(=O)O)CC2)cc(C)c1N1CC(c2c(Cl)cccc2Cl)C1 [Compound 31, 1-(4-(3-(2,6-dichlorophenyl)azetidin-1-yl)-3,5-dimethylbenzyl)piperidine-4-carboxylic acid] |
| 6.00 to 7.00 | O=C(O)C1CCN(C2CCc3cc(C4CN(c5c(Cl)cccc5Cl)C4)ccc32)CC1 (single isomer, unassigned) [Compound 1b, 1-(5-(1-(2,6-dichlorophenyl)azetidin-3-yl)-2,3-dihydro-1H-inden-1-yl)piperidine-4-carboxylic acid] |
| 7.00 to 8.00 | CC(C)(c1ccc(C2CN(c3c(Cl)cccc3Cl)C2)nc1)N1CCC(C(=O)O)CC1 [Compound 87, 1-(2-(6-(1-(2,6-dichlorophenyl)azetidin-3-yl)pyridin-3-yl)propan-2-yl)-piperidine-4-carboxylic acid] |
| ≥ 8.00 | O=C(O)C1CCN(C2CCc3cc(C4CN(c5c(Cl)cccc5Cl)C4)ccc32)CC1 (single isomer, unassigned) [Compound 1a, 1-(5-(1-(2,6-dichlorophenyl)azetidin-3-yl)-2,3-dihydro-1H-inden-1-yl)piperidine-4-carboxylic acid] |
| 6.00 to 7.00 | O=C(O)C1CCN(Cc2ccc(C3CN(c4c(F)cccc4F)C3)cc2)CC1 [Compound 14, 1-(4-(1-(2,6-difluorophenyl)azetidin-3-yl)benzyl)piperidine-4-carboxylic acid] |
| ≥ 8.00 | Cc1cc(CN2CCC(C(=O)O)CC2)cc(C)c1C1CN(c2c(Cl)cccc2Cl)C1 [Compound 20, 1-(4-(1-(2,6-dichlorophenyl)azetidin-3-yl)-3,5-dimethylbenzyl)piperidine-4-carboxylic acid] |
| 6.00 to 7.00 | Cc1cc(C2CN(c3ccccc3)C2)cc(C)c1CN1CCC(C(=O)O)CC1 [Compound 45, 1-(2,6-dimethyl-4-(1-phenylazetidin-3-yl)benzyl)piperidine-4-carboxylic acid] |
| 7.00 to 8.00 | Cc1cc(C2CN(c3c(Cl)cccc3Cl)C2)cnc1CN1CCC(C(=O)O)CC1 [Compound 76, 1-((5-(1-(2,6-dichlorophenyl)azetidin-3-yl)-3-methylpyridin-2-yl)methyl)-piperidine-4-carboxylic acid] |
| 6.00 to 7.00 | Cc1cc(C2CN(c3ccc(C4CC4)c(Cl)c3)C2)cc(C)c1CN1CCC(C(=O)O)CC1 [Compound 49, 1-(4-(1-(3-chloro-4-cyclopropylphenyl)azetidin-3-yl)-2,6-dimethylbenzyl)-piperidine-4-carboxylic acid] |
| ≥ 8.00 | CC(C)(c1ccc(C2CN(c3c(Cl)cccc3Cl)C2)cc1)N1CCC(C(=O)O)CC1 [Compound 17, 1-(2-(4-(1-(2,6-dichlorophenyl)azetidin-3-yl)phenyl)propan-2-yl)piperidine-4-carboxylic acid] |
| ≥ 8.00 | Cc1cc(C2CN(c3c(Cl)cccc3Cl)C2)ccc1C(C)N1CCC(C(=O)O)CC1 (single isomer, unassigned) [Compound 16b, 1-(1-(4-(1-(2,6-dichlorophenyl)azetidin-3-yl)-2-methylphenyl)-ethyl)piperidine-4-carboxylic acid] |
| ≥ 8.00 | Cc1cc(C2CN(c3c(Cl)cccc3Cl)C2)cc(C)c1CN1CCC(C)(C(=O)O)CC1 [Compound 90, 1-(4-(1-(2,6-dichlorophenyl)azetidin-3-yl)-2,6-dimethylbenzyl)-4-methyl-piperidine-4-carboxylic acid, formic acid salt] |
| ≥ 8.00 | Cc1cc(C2CN(c3c(Cl)cccc3Cl)C2)cc(C)c1CN1CC[C@@H](C(=O)O)C1 [Compound 60, (R)-1-(4-(1-(2,6-dichlorophenyl)azetidin-3-yl)-2,6-dimethylbenzyl) pyrrolidine-3-carboxylic acid] |
| 7.00 to 8.00 | Cc1cc(C2CN(c3ccccc3F)C2)cc(C)c1CN1CCC(C(=O)O)CC1 [Compound 46, 1-(4-(1-(2-fluorophenyl)azetidin-3-yl)-2,6-dimethylbenzyl)piperidine-4-carboxylic acid] |
| 5.00 to 6.00 | O=C(O)C1CCN(Cc2ccc(C3CN(c4cccc(F)c4)C3)cc2)CC1 [Compound 41, 1-(4-(1-(3-fluorophenyl)azetidin-3-yl)benzyl)piperidine-4-carboxylic acid] |
| 7.00 to 8.00 | CC1(C(=O)O)CCN(Cc2ccc(C3CN(c4c(Cl)cccc4Cl)C3)cc2)CC1 [Compound 89, 1-(4-(1-(2,6-dichlorophenyl)azetidin-3-yl)benzyl)-4-methylpiperidine-4-carboxylic acid, formic acid salt] |
| 5.00 to 6.00 | O=C(O)C1CN(C2CCc3cc(C4CN(c5cccc(F)c5)C4)ccc32)C1 (single isomer, unassigned) [Compound 8a, 1-(5-(1-(3-fluorophenyl)azetidin-3-yl)-2,3-dihydro-1H-inden-1-yl)azetidine-3-carboxylic acid] |
| ≥ 8.00 | CCc1cccc(C)c1N1CC(c2cc(C)c(CN3CCC(C(=O)O)CC3)c(C)c2)C1 [Compound 68, 1-(4-(1-(2-ethyl-6-methylphenyl)azetidin-3-yl)-2,6-dimethylbenzyl)-piperidine-4-carboxylic acid] |
| 7.00 to 8.00 | Cc1cc(C2CN(c3c(C)cccc3C(F)F)C2)cc(C)c1CN1CCC(C(=O)O)CC1 [Compound 72, 1-(4-(1-(2-(difluoromethyl)-6-methylphenyl)azetidin-3-yl)-2,6-dimethyl-benzyl)piperidine-4-carboxylic acid] |
| 6.00 to 7.00 | Cc1cc(C2CN(c3cccc4ccccc34)C2)cc(C)c1CN1CCC(C(=O)O)CC1 [Compound 75, 1-(2,6-dimethyl-4-(1-(naphthalen-1-yl)azetidin-3-yl)benzyl)piperidine-4-carboxylic acid] |
| ≥ 8.00 | Cc1cc(C2CN(c3c(C)cccc3C(F)(F)F)C2)cc(C)c1CN1CCC(C(=O)O)CC1 [Compound 73, 1-(2,6-dimethyl-4-(1-(2-methyl-6-(trifluoromethyl)phenyl)azetidin-3-yl)-benzyl)piperidine-4-carboxylic acid] |
| 6.00 to 7.00 | O=C(O)C1CN(C2CCc3cc(C4CN(c5cccc(F)c5)C4)ccc32)C1 (single isomer, unassigned) [Compound 8b, 1-(5-(1-(3-fluorophenyl)azetidin-3-yl)-2,3-dihydro-1H-inden-1-yl)azetidine-3-carboxylic acid] |
| 5.00 to 6.00 | O=C(O)C1CCN(C2CCc3cc(C4CN(c5ccccc5F)C4)ccc32)CC1 (single isomer, unassigned) [Compound 4b, 1-(5-(1-(2-fluorophenyl)azetidin-3-yl)-2,3-dihydro-1H-inden-1-yl)piperidine-4-carboxylic acid] |
| 5.00 to 6.00 | O=C(O)C1CCN(Cc2ccc(C3CN(c4ccc(C5CC5)cc4)C3)cc2)CC1 [Compound 43, 1-(4-(1-(4-cyclopropylphenyl)azetidin-3-yl)benzyl)piperidine-4-carboxylic acid] |
| ≥ 8.00 | O=C(O)C1CCN(C2CCc3cc(N4CC(c5c(F)cccc5F)C4)ccc32)CC1 (single isomer, unassigned) [Compound 9a, 1-(5-(3-(2,6-difluorophenyl)azetidin-1-yl)-2,3-dihydro-1H-inden-1-yl)piperidine-4-carboxylic acid] |
| 6.00 to 7.00 | O=C(O)C1CCN(Cc2ccc(N3CC(c4c(F)cccc4F)C3)cc2)CC1 [Compound 27, 1-(4-(3-(2,6-difluorophenyl)azetidin-1-yl)benzyl)piperidine-4-carboxylic acid] |
| ≥ 8.00 | O=C(O)C1CCN(Cc2ccc(C3CN(c4c(Cl)cccc4Cl)C3)cc2C2CC2)CC1 [Compound 56, 1-(2-cyclopropyl-4-(1-(2,6-dichlorophenyl)azetidin-3-yl)benzyl)piperidine-4-carboxylic acid] |
